{"source": "patent US20210269478A1", "about": "“ADJUVANT FOR CELL CULTURE” (FUKUSHIMA MEDICAL UNIVERSITY, priority 2018, published 2021)", "molecules": {"B1": {"name": "rJAM-C: polypeptide obtained by linking the Fc region of human IgG1 to the C-terminus of the extracellular domain (Met 1-Asn 241) of human JAM-C; Sino Biological (protein)", "chain": "EAVNLKSSNRNPVVHEFESVELSCIITDSQTSDPRIEWKKIQDGQTTYVYFDNKIQGDLAGRTDVFGKTSLRIWNVTRSDSAIYRCEVVALNDRKEVDEITIELIVQVKPVTPVCRIPAAVPVGKTATLQCQESEGYPRPHYSWYRNDVPLPTDSRANPRFQNSSFHVNSETGTLVFNAVHKDDSGQYYCIASNDAGAARCEGQDMEVYDLN"}}, "key": {"[1]": {"tested_on": "stem cell markers Klf4, Nanog, c-Myc, and Sox2 in ADSCs", "assay": "Semi-quantitative RT-PCR of stem cell markers in ADSCs cultured on coated dish", "format": "cell-based, murine", "source_text": "The result was expressed as a relative value based on the value of mIgG defined as 1. Error bar indicates standard deviation. Asterisk(s) indicate the result of the t-test; where * means P<0.05; ** means P<0.01; and *** means P<0.001.\nThe result was expressed as a relative value with respect to the value of vehicle defined as 1. Error bar indicates standard deviation in three experiments. Asterisk(s) indicate the result of t-test; where * means P<0.05; ** means P<0.01; and *** means P<0.001.\nRNA extraction and RT-PCR were performed using a common method previously described (Sugimoto, et al., PLoS One, 2013, 10: e751062013). […] Semi-quantitative PCR was performed using the GoTaq Green Master Mix Kit (Promega) and primers [Sox2 (5′-[…]-3′ (SEQ ID NO: 23), and 5′-[…]-3′ (SEQ ID NO: 24)); c-Myc (5′-[…]-3′ (SEQ ID NO: 25), and 5′-[…]-3′ (SEQ ID NO: 26)); Nanog (5′-[…]-3′ (SEQ ID NO: 27), and 5′-[…]-3′ (SEQ ID NO: 28)); Klf4 (5′-[…]-3′ (SEQ ID NO: 29), and 5′-[…]-3′ (SEQ ID NO: 30)); and Gapdh (5′-[…]-3′ (SEQ ID NO: 31), and 5′-[…]-3′ (SEQ ID NO: 32))] to amplify the target sequences. […] Then the brightness in a region corresponding to the molecular weight of interest was quantified using the ImageJ (National Institute of Health (NIH)) and statistically analyzed."}, "[2]": {"tested_on": "ADSCs (adipose-derived stem cells)", "assay": "Cell proliferation assay, BrdU-positive divided by DAPI-positive cells", "format": "cell-based, murine", "procedure": "The result was expressed as a relative value based on the value of mIgG defined as 1. Error bar indicates standard deviation. Asterisk(s) indicate the result of t-test; where * means P<0.05; ** means P<0.01; and *** means P<0.001.\nThe results are shown relative to the total cell number defined as 1. P-value was calculated by a chi-square test (n=353, n=501).\nCells (4×10^4 cells) were inoculated in a 6-well culture dish, and, 24 hours later, treated with 5-bromo-2′-deoxyuridine (BrdU; #B-5002, Sigma-Aldrich) at the final concentration of 10 μM for 2 hours, and then fixed with 4% PFA. Then, the sample was stained according to the method recommended by the manufacturer, and imaged with a fluorescent phase-contrast microscope (OLYMPUS IX71, Olympus Corporation) and a DP Controller. The number of BrdU-positive particles was divided by that of DAPI-positive ones to obtain a proliferated cell number."}, "[3]": {"tested_on": "F9 cells expressing JAM-B and JAM-C", "assay": "Cell adhesion assay, crystal violet staining of adhered F9 cells", "format": "cell-based", "settings": "coating at 286 ng/cm^2 in 96-well dish; 30 min after adding cells; relative to vehicle defined as 1", "procedure": "JAM-C D1 (286 ng/cm^2) was added to a 96-well plastic culture dish, then F9 stem cells were added thereto, and after 30 min the number of adhered cells was measured with crystal violet staining, while performing no coating as a negative control, and using type I collagen (1,430 ng/cm^2) and rJAM-C (1,430 ng/cm^2) as positive controls. The cell number was expressed as a relative value based on the value of the vehicle defined as 1. Error bar indicates standard deviation. Asterisk(s) indicate the result of the t-test; where * means P<0.05; and *** means P<0.001.\n(§1) For each of recombinant soluble JAM-C (polypeptide obtained by linking the Fc region of human IgG1 to the C-terminus of the extracellular domain (Met 1-Asn 241) of human JAM-C; Sino Biological) and murine IgG (GE Healthcare), 20, 100, or 500 ng volume thereof was diluted in 50 μL PBS and disposed into a 96-well round-bottom plate, which was then left standing at 30° C. for 12 hours. As a positive control, 500 ng of collagen Cellmatrix type I-A (Nitta Gelatin Inc.) was processed in the same manner. […]\nAfter washing twice with PBS, ADSCs were detached using a 0.25% trypsin/1 mM EDTA solution and inoculated to the above plate and cultured in a CO2 incubator at 37° C. for 30 min. […] Finally, 50 μL of 5% SDS was used for lysis, and the absorbance was measured at 560 nm wavelength. […]"}, "[4]": {"tested_on": "ADSCs (adipose-derived stem cells)", "assay": "Cell adhesion assay, crystal violet staining of adhered ADSCs", "format": "cell-based", "settings": "coating at 20, 100, and 500 ng per well in 96-well plate; 30 min after adding cells; versus murine IgG control", "procedure": "The rJAM-C, or murine IgG (mIgG) as a negative control (both in 20, 100, and 500 ng (57, 286, and 1,430 ng/cm^2, respectively)), and type I collagen (500 ng) as a positive control were added to a 96-well plastic culture dish, and then ADSCs were added. After 30 min, the number of adhered cells was measured by crystal violet staining, and the relative absorbance was measured. The absorbance was expressed by a relative absorbance based on the result of the vehicle defined as 1. Error bar indicates standard deviation. Asterisk(s) indicate the result of t-test; where * means P<0.05; and *** means P<0.001.\nas §1\nAfter washing twice with PBS, ADSCs were detached using a 0.25% trypsin/1 mM EDTA solution and inoculated to the above plate and cultured in a CO2 incubator at 37° C. for 30 min. […] Finally, 50 μL of 5% SDS was used for lysis, and the absorbance was measured at 560 nm wavelength."}}}
{"molecule": "DPRIEWKKI [JAM-C D1]", "values": [{"measurement": "expression of stem cell markers Nanog, Klf4, Sox2, and c-Myc", "setting": "[1]; ADSCs in 6-well dish coated at 52 ng/cm^2, relative to vehicle defined as 1", "result": "significantly increased"}, {"measurement": "proliferation ability (BrdU-positive / DAPI-positive cells)", "setting": "[2]; ADSCs in 6-well dish coated at 52 ng/cm^2, chi-square test", "result": "significantly increased"}, {"measurement": "adhesion of F9 cells (adhered cell number)", "setting": "[3]", "result": "significantly increased"}]}
{"molecule": "B1", "values": [{"measurement": "adhesion of ADSCs (adherent cell number, relative absorbance)", "setting": "[4]", "result": "significantly increased"}, {"measurement": "expression of stem cell markers Klf4, Nanog, c-Myc, and Sox2", "setting": "[1]; ADSCs in 12-well dish coated at 132 ng/cm^2, cultured 48 hours, relative to mIgG defined as 1", "result": "significantly increased"}, {"measurement": "proliferation ability (BrdU-positive / DAPI-positive cells)", "setting": "[2]; ADSCs in 6-well dish coated at 104 ng/cm^2, relative to mIgG defined as 1", "result": "about 2 fold"}]}
